# Source: patent publication EP4778516A1, “CALCIFICATION ENHANCER FOR OSTEOBLAST MC3T3-E1 CELL” (Watanabe Oyster Laboratory Co., Ltd., priority 2023, dated 2025)
# How the values were obtained:
# Assay type in all cases: cell-based, mouse
# MC3T3-E1 cells [1] = assay: Cell death assay (count of attached cells after 48 hours from subconfluence)
# Method: (§1) To evaluate the effects of DHMBA on cell death of osteoblasts MC3T3-E1, the cells (1×10^5/ml medium per well in a 24-well plate) were cultured in a-MEM containing 10% FBS and 1% P/S. After culturing for 3 days until reaching subconfluence, either a reagent vehicle (1% ethanol as final concentration) or DHMBA (0.1, 1, 10, 100, or 1000 mM) was added, and the cells were further cultured for 48 hours. After culture, to count the number of cells attached to each well, a […] containing 0.05% trypsin and EDTA (0.1 ml per well) was added, and then the culture plates were incubated at 37°C for 2 minutes. Subsequently, a-MEM (0.9 ml) containing 10% FBS and 1% P/S was added, and the cells were detached and mixed by pipetting. The cell suspension (0.1 ml) was mixed with 0.1 ml of 0.5% trypan blue staining solution. By this staining, […]. Viable cells were counted under a microscope (Olympus MTV-3) using a hemocytometer (Sigma-Aldrich, St. Louis, MO) and a cell counter (H-102P, Line Seiki Co., Ltd., Tokyo, Japan), and the average of two counts was calculated. Cell numbers were expressed as the number per well.
# MC3T3-E1 cells [2] = assay: Osteoblast differentiation assay and Alizarin Red S staining (calcification)
# Method: MC3T3-E1 cells (10^5 cells/ml medium per well in a 12-well plate) were cultured for 3 days in a-MEM (1.0 ml per well) containing 10% FBS and 1% P/S. Thereafter, the medium was replaced, as previously described, with calcification-promoting medium, that is, a-MEM supplemented with 10% FBS, 1% P/S, L-ascorbic acid ([…]), and 4 mM b- glycerophosphoric acid. DHMBA was added at a concentration of 1 or 10 mM, and the cells were cultured for 18 days, with the medium replaced every 3 days with fresh medium. On day 18 of culture, the cells were rinsed with PBS and fixed by addition of ice-cold 75% ethanol at 4°C for 30 minutes. Then, calcium deposition was visualized by staining with Alizarin Red S (40 mM, pH 6.2). After incubation at room temperature for 30 minutes, the staining solution was removed by thorough washing with distilled water. Stained cells on the plates were photographed under a microscope (×40) (Olympus IX71, Olympus Corp., Tokyo, Japan) and imaged using ImageJ2 software. For quantification, the stained cells in each plate were solubilized by addition of 10% cetylpyridinium chloride solution, and absorbance was measured at 570 nm.
# MC3T3-E1 cells [3] = assay: Cell proliferation assay (cell counting)
# Method: To examine progression of cell proliferation, MC3T3-E1 cells (1×10^5/ml medium per well) were cultured using a 24-well plate in a-MEM supplemented with 10% FBS and 1% P/S at 37°C in a water-saturated atmosphere containing 5% CO2 and 95% air. The cells were cultured for 1, 2, 3, 4, or 5 days in the presence of a vehicle (1% ethanol as final concentration) or DHMBA (10 mM). In another experiment, to evaluate the effects of increased concentrations of DHMBA on MC3T3-E1 cells, the cells (1×10^5/ml per well) were cultured using a 24-well plate in DMEM (containing 10% FBS and 1% P/S). The cells were cultured for 3 days in the presence of either a reagent vehicle (1% ethanol as final concentration) or DHMBA (0.1, 1, 10, 100, or 1000 mM).
# as §1
# RAW264.7 cells = assay: TNF-a production assay (ELISA); conditions: LPS 10 or 100 ng/ml, DHMBA 1 or 10 mM; Fig. 7A
# Method: RAW264.7 cells (1× 10^5/ml per well) were cultured in DMEM containing 10% FBS and 1% P/S in a 24-well plate for 3 days until reaching subconfluence. […] The cells were detached from each culture dish to count the cell numbers as described in the section "Cell proliferation assay". […] The concentration of TNF-a in the medium was analyzed using a mouse TNF-a ELISA kit (catalog no. KHC301) purchased from Cayman Chemical Company (Ann Arbor, MI, USA) in accordance with the manufacturer's instructions. TNF-a production was expressed as the amount of TNF-a secreted into the medium in picograms per milliliter (pg/ml).
compound,measurement,setting,value
"COc1c(O)cc(CO)cc1O [DHMBA, 3,5-dihydroxy-4-methoxybenzyl alcohol]",number of cells attached to the dishes (cell death),"MC3T3-E1 cells [1]; DHMBA 0.1, 1, 10, or 100 mM, 48 hours after subconfluence, Fig. 1C",not changed
same,number of cells (cell death),"MC3T3-E1 cells [1]; DHMBA 1000 mM, 48 hours after subconfluence, Fig. 1C",significantly decreased
same,TNF-a-enhanced death of MC3T3-E1 cells,"MC3T3-E1 cells [1]; TNF-a 1 or 10 ng/ml plus DHMBA 1 or 10 mM, 48 hours, Fig. 3B",suppressed
same,calcification of MC3T3-E1 cells,"MC3T3-E1 cells [2]; DHMBA 1 or 10 mM, 18 days in calcification-promoting medium, Alizarin Red, absorbance 570 nm, Figs. 2A and 2B",enhanced
same,TNF-a-induced suppression of calcification of osteoblasts,"MC3T3-E1 cells [2]; TNF-a 1 ng/ml plus DHMBA 1 or 10 mM, 18 days, Fig. 4",suppressed
same,proliferation of MC3T3-E1 cells,"MC3T3-E1 cells [3]; DHMBA 10 mM, cultured 1, 2, 3, 4, or 5 days, vs vehicle (1% ethanol), Fig. 1A",no significant change
same,proliferation of MC3T3-E1 cells,"MC3T3-E1 cells [3]; DHMBA 0.1, 1, 10, or 100 mM, 3 days, Fig. 1B",not changed
same,cell proliferation,"MC3T3-E1 cells [3]; DHMBA 1000 mM (highest concentration tested), 3 days, Fig. 1B",significant decrease
same,TNF-a-induced inhibition of cell proliferation,"MC3T3-E1 cells [3]; TNF-a 1 or 10 ng/ml plus DHMBA 1 or 10 mM, 3 days, Fig. 3A",suppressed
same,LPS-induced increase of production of TNF-a in RAW264.7 cells,RAW264.7 cells,suppressed
